In patent US20110064679A1 (priority 2008, published 2011):
Like-named read-outs stand apart in the source and are kept apart here.

Experiments:
Mouse = conditions: cited from earlier work
Drosophila melanogaster = assay: Lifespan toxicity test of preservative; assay type: in vivo
Experimental: (§1) The toxicity of the preservative was tested by examining the lifespan of Caenorhabditis elegans, Drosophila melanogaster, and Mus musculus.

microbial growth = assay: Preservative function: microbial growth in agar and cornmeal paste; conditions: for microbial growth compared to control preparations: 8 mM in Nematode Growth Agar and cornmeal paste, monitored with a microscope
Source text: These compositions where monitored over time with a microscope, and compared to control preparations.

[1] = tested on: genomic expression in the livers; assay: Genomic expression in the livers, Affymatrix Mouse Genome 430 2.0 Array; assay type: in vivo; conditions: for Percentage of genes moving in same direction as Calorie Restricted Mice (correlation): 1.7 fold expression cut-off
Source text: In the calorie restricted mice, 1,763 genes changed in expression as compared to the control group. […] Comparison of common genes changed in expression between the Calorie Restricted group and the Oxaloacetic group indicated 363 genes in common.
If a 1.7 fold expression cut-off is used to eliminate false positives (commonly used in the literature), the correlation between the two groups becomes 100% for the genes in common, which drops down to 36 highly expressed or repressed genes. A table of the genes affected is seen in Table 1.

C57BL/6 mice [2] = conditions: for Average increase in lifespan compared to the control group: daily dosage of 380 mg/kg, male C57BL/6 mice started at 9 months
Experimental: (§2) This product was added to the normal diet and consumed over a period of eight hours. Food was selected as the vehicle of choice due to solubility concerns of the Oxaloacetate and because of the anticipated use of the product.
C57BL/6 mice were used in this test. These mice were used because they are often used for longevity studies.
Male mice were used in the Chronic study because of their linear increase in weight with time. Females are less linear in their increase.
Each animal was housed separately and the test was started with older animals (9 months of age) as human use is primarily anticipated to be in the older populations. The test was continued until all animals died.
25 Male C57BL/6 mice with the same day of birth (plus or minus 1 week) were selected for the test. The mice were evaluated for fasting glucose levels and weight, and broken into three similar groups based on equalization of weight and fasting glucose levels.
Each animal was caged separately in a low stimulus environment and fed one of three diets. The first group was the Control Group, and it was fed an ad Librium balanced diet of mouse food pellets. The second group was calorie restricted 40% from the control group, as established by baseline feeding. […] At the end of 21 weeks, 3 mice from each group were sacrificed and their livers exhumed for genomic testing.
The remaining groups of mice were allowed to live the rest of their lives on the individualized diets for humane reasons. The study has been ongoing for 18 months.
The test compound laced food was placed in the cage with the animal at the end of each day. Water was provided freely.

[3] = Acidizing function: pH of agar; assay type: physicochemical
Experimental: (§3) This dropped the pH of the agar from 6.0 to 5.3. The toxicity of the acidizing agent was tested by examining the lifespan of Caenorhabditis elegans.

Mus musculus = conditions: in vivo
Experimental: as §1

C57BL/6 mice [4] = assay: in vivo
Experimental: as §2
(§4) C57BL/6 mice were used in this test. These mice were used because they are often used for longevity studies. Additionally, there is substantial information on Chronic exposure of the test compound with this breed of mice.
(§5) Male mice were used in the Acute study because male mice were used in the Chronic exposure study. Each animal was housed separately and was 2 months of age.
(§6) 5,000 mg/kg doses of the test compound were added to food, as it is anticipated that this product will be taken with a meal. Specifically,
(§7) Each animal was caged separately. Prior to feeding, the bedding in the animal cage was changed. Food was prepared by dissolving 100 mg of the test compound with each ml of distilled water, then rolling the appropriate amount of food pellets in the amount of water until the waster was absorbed to obtain the proper dosage per animal. The test compound laced food was placed in the cage with the animal at the end of the day. […] Water was provided freely.
(§8) After dosing the animals with the test compound, the animals were returned to a standard Ad Librium diet of food pellets and water.

in vivo = conditions: male, C57BL/6, mouse, in vivo, po
Experimental: as §2, §4, §5, §6, §7, §8

Caenorhabditis elegans = assay: Lifespan toxicity test of preservative / acidizing agent; assay type: in vivo
Experimental: as §1, §3

## CC(O)C(=O)O (centres unmarked) [Lactic Acid]
Mouse; Mouse data, injected, subcutaneous injection
  LD50: 4,500 mg/kg

## O=C(O)CC(O)C(=O)O (centres unmarked) [Malic Acid]
Mouse; mouse, in vivo, po
  LD50: 1,600 mg/kg

## O=C(O)CC(=O)C(=O)O [Oxaloacetic Acid]
Drosophila melanogaster
  lifespan (toxicity of the preservative): no decrease in lifespan
Microbial growth
  microbial growth compared to control preparations: control preparation had more microbial growth
Microbial growth; even when the salt is used
  smallest concentration producing a reduction in microbial activity: 8 mM
[1]; 1.7 Fold Cut Off
  Genes Moving in Opposite Direction as Calorie Restricted Mice: 0
  Genes Moving in Same Direction as Calorie Restricted Mice: 36
[1]
  Percentage of genes moving in same direction as Calorie Restricted Mice (correlation): 100%
[1]; listed as Oxaloacetate
  Percentage of genes moving in same direction as Calorie Restricted Mice (correlation): 100.0%
[1]; 363 genes in common, no cut-off
  Directional correlation of genomic expression with the calorie restricted group: 98.1%
[1]; gene 9130019P20Rik, Affx No. 39136, mouse liver vs control
  OX to C Change: 1
[1]; liver, after 21 weeks
  Genes changed in expression in common with the Calorie Restricted group: 363
[1]; liver, after 21 weeks on increasing diet
  Number of genes changed in expression as compared with the control group: 765
C57BL/6 mice [2]; 0.4% in food, 380 mg/kg daily, started at age of 9 months
  Increase of residual lifespan over the control group: 40%
C57BL/6 mice [2]; 0.4% in food
  Average increase in lifespan compared to the control group: > 20%
C57BL/6 mice [2]; 0.4% in food, 380 mg/kg
  Average increase in lifespan compared to the control group: 25%
C57BL/6 mice [2]; mouse, in vivo, 380 mg/kg
  Chronic toxicity compared to the control group: negative toxicity
[3]
  smallest concentration producing a decrease in pH: 1 mM
[3]; 8 mM in Nematode Growth Agar, dropped from 6.0
  pH of the agar after addition: 5.3
Mus musculus
  lifespan (toxicity of the preservative): no decrease in lifespan
C57BL/6 mice [4]; 5,000 mg/kg with food, five male C57BL/6 mice
  Survival at limitation dose: All animals survived
C57BL/6 mice [4]; male, C57BL/6, mouse, in vivo, po, 8 h
  LD50: > 5,000 mg/kg
In vivo
  LD50 at 8 h: > 5000 mg/kg
Caenorhabditis elegans
  lifespan (toxicity of the preservative): no decrease in lifespan
Caenorhabditis elegans; 8 mM in agar
  lifespan (toxicity of the acidizing agent): no decrease in lifespan

## O=C([O-])CC(=O)C(=O)O.[Na+] [sodium oxaloacetate salt, sodium oxaloacetate]
Microbial growth
  microbial growth compared to control preparations: control preparations had more microbial growth
